d = 2'-deoxy (DNA); m = 2'-O-methyl
Columns and labels:
[1] = tested on: CFTR channel activity in human bronchial epithelial cells (HBEC) from a 3849+10 kbC-T homozygous patient; assay: Ussing chamber analysis of CFTR function in 3849+10 kbC-T HBEC; type: cell-based; settings: SSO A 1 uM overnight, OEC 4 uM 2 hs luminal or serosal, 72 h, approved drugs in parallel
From the text: FIG. 11. CFTR activity restored to CF splicing mutation 3849+10 kbC-T using SSOs. SSOs were delivered in vitro by electroporation (˜100% efficiency), CF primary cells were differentiated on permeable supports and tested. Panel A. PCR analysis. The lower band is the correctly spliced CFTR. Panel B. Functional correction by Ussing chamber analysis.
FIG. 12. OEC Mediated Delivery of a SSO in 3849+10 kbC-T HBEC. Well-differentiated human bronchial epithelial cells (HBEC) derived from a 3849+10 kbC-T homozygous patient were incubated with corrective (LNA) SSO A from FIG. 1 (1 uM, overnight). Cells were then incubated with OEC UNC2383 in the luminal or serosal bath (4 uM, 2 hs). Both the SSO and OEC were added in cell growing medium. Seventy two hour later, HBEC were analyzed in Ussing chamber for CFTR function. Orkambi® was tested in parallel inserts.
Results: In vitro studies were performed in well-differentiated HBEC cells derived from a homozygous 3849+10 kbC→T CF patient (CF HBEC) treated with one dose of a specific SSO (1 uM, 12 hs) followed by one dose of OEC (apical or basolateral delivery, 2-4 uM, 2-3 hs). A significant increase of forskolin-stimulated CFTR activity in Ussing chamber analyses was observed 24-96 hs after SSO+OEC treatment compared to SSO alone treatment or vehicle. OEC was efficacious delivered apically as well as basolaterally. Transepithelial resistance and microscopy tests were implemented to monitor cytotoxicity, which was negligible for both SSO and OEC (FIG. 12). In vivo studies were performed in a transgenic mouse model that has a SSO-inducible EGFP reporter.
SSOs (100 nM) were introduced in airway epithelial cells derived from a 3849+10 kbC-T homozygous CF patient in suspension by electroporation using the Neon system, program A4. Cells were differentiated for 2 weeks in culture on human collagen-coated permeable supports (Millipore) before being tested in Ussing chambers following methods described in Kreda et al. […] “Characterization of Wild-Type and ΔF508 Cystic Fibrosis Transmembrane Regulator in Human Respiratory Epithelia” Mol. Biol. Cell 16(5):2154-2167 (100 uM Amiloride, Amil; 10 uM Forskolin, Fsk; 20 uM CFTR inhibitor 172). After Ussing chamber analysis, cells were lysed and assayed for RT-PCR as described in Wang et al 2017 (FIG. 11).
(SEQ ID NO:2), C (5′+G*mA*mG*mU*+C*mU*mU**mU*mA*+C*mU*mC*mA*mC*mC*+A*mU*mU*mU) (SEQ ID NO:3) (Locked Nucleic Acid (LNA)=+, PS=*, 2′OMe=m). In SSO sequences A, B, and C the underlined bases indicate oligo bases that match up to the bases in the mutated splice site in the 3849+10 kb C-T CFTR splicing mutation. MM623 or SSO623 sequences are described herein. […]

[2] = tested on: HeLaLuc705 cells; assay: SSO-mediated luciferase induction assay; type: cell-based; settings: for EC50: luciferase induction by SSO623
Description: FIG. 1B-1E. Effects with SSOs. FIG. 1B Structure of UNC2383. […] The cells were then rinsed and incubation continued for an additional 4 h in DMEM+10% FBS. Cells were rinsed twice in PBS and luciferase activity (RLU) and cell protein determined. The larger round symbol indicates the MM oligonucleotide. Means+/−SE. N=3. […] The cells were further incubated and then luciferase and protein determined. The total time of incubation in each case was 6 h. […] Means+/−SE. N=3.
(§1) FIG. 3. Effect and Cytotoxicity of Analogs. The effect of selected UNC2383 analogs on luciferase induction by SSO623 was measured as described in Methods and in the legend of FIG. 1B-1E. Cytotoxicity was measured using the Alamar Blue method as in FIG. 1E. MM10 is the effect of 10 uM compound in the presence of a mismatched oligonucleotide. Means and SE. N=3.
HeLaLuc705 cells are stably transfected with a firefly luciferase reporter whose coding sequence is interrupted by an abnormal intron. […] NIH-3T3-MDR cells are stably transfected with a human MDR1 cDNA coding for the P-glycoprotein (Pgp). We have described the maintenance and use of these cell lines elsewhere. (18, 20)
(§2) SSO-mediated luciferase induction assays were conducted as previously described. (18) In short, HeLaLuc705 cells in 24 well culture plates were preincubated with SSO623 followed by brief treatment with the small molecule; at intervals thereafter, luciferase activity and protein content were determined. […] (30)

[3] = Alamar Blue cytotoxicity assay; type: cell-based; settings: human, HeLa Luc705 cells; Alamar Blue cytotoxicity; read-out: TC50
Description: (§3) FIG. 1B-1E. Effects with SSOs. FIG. 1B Structure of UNC2383. FIG. 1C Compound 2383 enhances SSO effects. Cells were incubated in 24-well plates with 100 nM SSO623 or its mismatched control (MM) for 16 h in DMEM+10% FBS, rinsed and then treated with various concentrations of 2383 for 2 h. The cells were then rinsed and incubation continued for an additional 4 h in DMEM+10% FBS. Cells were rinsed twice in PBS and luciferase activity (RLU) and cell protein determined. The larger round symbol indicates the MM oligonucleotide. Means+/−SE. N=3. FIG. 1D Kinetics of 2383 action. Cells were preloaded with 100 nM SSO623 and then exposed to 2383 for various periods after which the compound was removed. The cells were further incubated and then luciferase and protein determined. The total time of incubation in each case was 6 h. FIG. 1E Cytotoxicity of 2383. HeLa Luc705 or NIH-3T3-MDR cells were exposed to 2383 as in (FIG. 1C) then incubated for 24 h in DMEM plus 10% FBS and tested using the Alamar Blue cytotoxicity assay. Means+/−SE. N=3.
as §1
(§4) SSO-mediated luciferase induction assays were conducted as previously described. (18) In short, HeLaLuc705 cells in 24 well culture plates were preincubated with SSO623 followed by brief treatment with the small molecule; at intervals thereafter, luciferase activity and protein content were determined. ASO mediated inhibition of MDR1 gene expression utilized an Alexa 488 labeled anti-P-glycoprotein antibody and flow cytometry to measure Pgp expression as described. (20) The anti-MDR1 sequence is 5′-CCATCccgacctcgcGCTCC-3′(SEQ ID NO: 5) (all phosphorothiopate with 2-O-Me residues in capitals). Cytotoxicity of 2383 was monitored using the Alamar Blue assay. (30)

[4] = tested on: HeLa Luc705 cells; assay: Alamar Blue cytotoxicity assay; type: cell-based; settings: ratio of cytotoxicity TC50 to luciferase induction EC50
Description: as §3, §1, §4

[5] = tested on: lysosomes of HeLa Luc 705 cells; assay: Lysotracker Red accumulation assay; type: cell-based; settings: 10 μM
Description: FIG. 9A-9D. Effects on lysosomes. FIG. 9A: Lysotracker uptake. Accumulation of Lysotracker Red in HeLa Luc 705 cells was measured after a 2 h exposure of cells to the indicated concentrations of various analogs. The lysosomotropic compound chloroquine was included as a positive control. Means of triplicate determinations are shown. The color-coded numbers refer to the fold increase in luciferase induction attained by the concentration of analog associated with the adjacent symbol on the graph. The numbers are taken from the data of FIG. 1C for UNC2383 and FIG. 4 for UNC4267, UNC4258, and UNC4428. FIG. 9B: LT50 vs TC50. […] Nonlinear regression was calculated using Prism software. The R^2 value for the plot is 0.91. FIG. 9C: 2383 vs chloroquine; luciferase induction. HeLa Luc705 cells were exposed to SSO623 and then treated with various concentrations of UNC2383 or chloroquine for 2 h and then tested for luciferase induction following the methods described in FIG. 1B-FIG. 1E. […]
The integrity of lysosomes was evaluated using the fluorescent probe Lysotracker Red (Thermo Fisher). […] Cells were thoroughly rinsed in PBS, lysed in 0.2% TX 100, and centrifuged briefly at 4000 rpm, and 100 uL of the supernate was distributed to black 96 well plates for analysis of fluorescence using a FLUOstar Omega 96 well microplate reader.

[6] = tested on: P-glycoprotein (Pgp) expression in NIH-3T3-MDR cells; assay: ASO mediated inhibition of MDR1 gene expression (Pgp by flow cytometry); type: cell-based, mouse; settings: 100 nM anti-MDR1 ASO 16 h; 10 μM UNC2383 2 h where used; 48 h
Description: FIG. 4. Effects with ASOs. Reduction of Pgp expression. NIH 3T3-MDR cells were incubated with 100 nM anti-MDR1 ASO or a mismatched (MM) control for 16 h in DMEM+1% FBS. Cells were rinsed and then treated with 10 μM UNC2383 for 2 h. The compound was removed, and the cells further incubated for 48 h. Expression of Pgp on the cell surface was determined by treating cells with Alexa 488 labeled anti-Pgp monoclonal antibody and binding quantitated by flow cytometry (PE(A)=units of fluorescence intensity). Treatment with ASO complexed with Lipofectamine 2000 (L2K) was a positive control. Y axis, cell counts; X axis, Alexa 488 fluorescence. […] Means±SE, N=3.
We also tested UNC2383 for its ability to affect ASOs rather than SSOs. The ASO was designed to inhibit expression of the MDR1 gene and its product the P-glycoprotein multidrug transporter. […] Cell surface expression of P-glycoprotein was monitored using an Alexa 488 labeled anti-Pgp monoclonal antibody and flow cytometry. […]
as §2, with “Cytotoxicity of 2383 was monitored using the Alamar Blue assay. […]” for “(30)”

[7] = mouse, in vivo
Description: All animal procedures were conducted in compliance with guidelines of the UNC Laboratory Animal Medicine Department and with federal guidelines. […] (20, 32) EGFP654 mice were administered 35 mg/kg of SSO623 or mismatched oligonucleotide in buffer by intraperitoneal injection on two consecutive days. One day later, mice received either 5 mg/kg of UNC2383 in a 1:1 DMSO/PEG400 solution or only the diluent, via intraperitoneal injection. […] After 24 h, the second cohort was euthanized and tissue and cardiac blood samples were obtained. […] (31) Blood samples were analyzed by the UNC Animal Clinical Chemistry Core facility.

Compound | EC50 [2] [µM] | CC50 at 2 h [3] [µM] | TC50/EC50 [4] | other results
CC(C)(C)c1cc(C(C)(C)C)c(NC(=O)c2c[nH]c3ccccc3c2=O)cc1O [Ivactafor®/Kalydeco®, reference compound] |  |  |  | CFTR channel activity / functional correction [1]: minimal effect; CFTR channel activity / functional correction ([1]; listed as Kalydeco®): no effect
O=C(Nc1nc2cc(Cl)ccc2n1CCN1CCCC1)c1cc2cc(Cl)ccc2o1 [UNC4425] | 6 | 12.5 | 2.1 | 
Cc1ccc2c(c1)nc(NC(=O)c1cc3cc(Cl)ccc3o1)n2CCN1CCCC1 [UNC4426] | 3.5 | 13 | 3.7 | 
CCN(CC)CCCC(C)Nc1ccnc2cc(Cl)ccc12 (centres unmarked) [Chloroquine, chloroquine, reference compound] |  |  |  | SSO-mediated luciferase induction, comparison with chloroquine ([2]; FIG. 9C, 2 h, chloroquine also 16 h): little effect
O=C(Nc1nc2cc(Cl)c(Cl)cc2n1CCN1CCCC1)c1cc2cc(Cl)ccc2o1 [UNC4428] | 10 | 50 | 5 | effect on lysotracker accumulation [5]: little effect; enhancement of SSO actions ([2]; 10 μM): quite strongly enhanced
ASO: anti-MDR1 antisense oligonucleotide 5′-CCATCccgacctcgcGCTCC-3′ (SEQ ID NO: 5) (antisense CCATCCCGACCTCGCGCTCC; sugars from the 5' end m5 d10 m5, all phosphorothioate, methylation of C and T or U not given here) [reference compound] |  |  |  | Pgp expression on the cell surface [6]: virtually no effect
SSO623: 2′-O Me phosphorothioate splice switching oligonucleotide 5′-GTTATTCTTTAGAATGGTGC-3′ (SEQ ID NO: 4) (all 2'-O-methyl, all phosphorothioate, T or U not given here) |  |  |  | ALT [7]: 51 +/− 8 U/L; AST [7]: 65 +/− 23 U/L; BUN [7]: 23 ± 2 mg/dL; Hb [7]: 13.8 ± 0.8 g/dL; Platelets [7]: 824 +/− 266 × 10^3/ul
O=C(Nc1nc2ccccc2n1CCN1CCCC1)c1cc2cc(Br)ccc2o1 [UNC4251] | 2 | 7 | 3.5 | 
COc1ccc2oc(C(=O)Nc3nc4ccccc4n3CCN3CCCC3)cc2c1 [UNC4253] | 11 | 48 | 4.4 | 
